The source of these data is US9586928B2 (The Scripps Research Institute, priority 2011, dated 2017).

One test deals with T1, RORα (Homo sapiens, UniProt P35398).
T1 construct: expressed in transfected cells; host or cells: HEK293T
T1 sequence (P35398 272-510 limits assumed): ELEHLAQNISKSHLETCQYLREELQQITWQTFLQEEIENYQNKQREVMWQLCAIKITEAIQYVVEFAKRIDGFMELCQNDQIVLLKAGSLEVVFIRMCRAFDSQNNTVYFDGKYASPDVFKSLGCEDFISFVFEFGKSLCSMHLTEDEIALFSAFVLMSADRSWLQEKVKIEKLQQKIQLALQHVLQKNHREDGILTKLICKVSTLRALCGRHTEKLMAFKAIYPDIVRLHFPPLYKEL
Put plainly: Gal4-RORα LBD / UAS luciferase cotransfection assay. Type of test: cell-based. Conditions: Gal4 chimeric cotransfection.

The test system of another test is EL-4 cells. Briefly: Intracellular IL-17 in PMA/ionomycin stimulated EL-4 cells (flow cytometry). It counts as cell-based, murine. Conditions: 5 μM, compared to vehicle treated cells. As for the experimental part:
The treatment of EL4 with SR2211 repressed the Il17 gene expression to a greater extent as compared to digoxin. […] In order to measure the effect of SR2211 on IL-17 production, we determined the intracellular levels of IL-17 using flow cytometry. After the stimulation of EL-4 cells with PMA/ionomycin for 3 hr, the cells were treated with BD GolgiPlug™ (protein transport inhibitor) to allow intracellular accumulation of cytokines. After 2 hr, the cells were fixed and stained to analyze the IL-17 by flow cytometry.
For intracellular cytokine staining, cells were stimulated with PMA (50 ng/Ml) and lonomycin (1 ug/ml) for 5 hrs. After 3 hrs of incubation, BD Golgiplug (BD Bioscience) was added and incubated for 2 hrs. Then, cells were fixed, permeabilized, and stained with PEIL17A Ab (BD Biosciences). Cell sorting was performed using LSRII (BD Biosciences). • 1. Ivanov, I I; McKenzie, B. S.; Zhou, L.; Tadokoro, C. E.; Lepelley, A.; Lafaille, J. J.; Cua, D. J.; Littman, D. R. (2006) The orphan nuclear receptor RORgammat directs the differentiation program of proinflammatory IL-17+ T helper cells. Cell 126, 1121-1133. • 2. Nakae, S.; Nambu, A.; Sudo. K.; Iwakura. Y. (2003) Suppression of immune induction of collagen-induced arthritis in IL-17-deficient mice. J Immunol 171, 6173-6177. • 3. Jetten. […]
(In general: Flow cytometry measures light scatter and fluorescence of single cells or particles in a stream.)

For `OC(c1ccc(-c2ccc(CN3CCN(Cc4ccncc4)CC3)cc2)c(F)c1)(C(F)(F)F)C(F)(F)F` [SR2211, 1,1,1,3,3,3-hexafluoro-2-(2-fluoro-4′-((4-(pyridin-4-ylmethyl)piperazin-1-yl)methyl)-[1,1′-biphenyl]-4-yl)propan-2-ol], the “effect on transcriptional activity of RORα” value at RORα is “did not have any impact on the transcriptional activity of RORα”. Further, the IL-17 intracellular staining result with EL-4 cells is recorded as “significant inhibition of IL-17 intracellular staining”.
